Active and inactive are the calls of the source.
Tests used:
[1] = biological target: T1, Galanin receptor type 3 (Homo sapiens, UniProt O60755); test: Fluorescence-based cell-based primary high throughput dose response assay to identify antagonists of the Galanin Receptor 3 (GalR3).; format: functional
T1 sequence (O60755 whole entry): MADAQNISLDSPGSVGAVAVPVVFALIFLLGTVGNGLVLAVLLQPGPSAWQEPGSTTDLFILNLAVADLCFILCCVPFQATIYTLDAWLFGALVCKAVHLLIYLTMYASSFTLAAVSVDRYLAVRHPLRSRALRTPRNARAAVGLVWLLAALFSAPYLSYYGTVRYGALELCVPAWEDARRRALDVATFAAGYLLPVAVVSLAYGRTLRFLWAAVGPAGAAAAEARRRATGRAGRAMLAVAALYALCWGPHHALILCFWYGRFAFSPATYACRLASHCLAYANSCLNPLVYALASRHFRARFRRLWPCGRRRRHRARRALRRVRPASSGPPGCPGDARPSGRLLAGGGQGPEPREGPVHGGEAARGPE

[2] = biological target: COUP transcription factor 2 (Homo sapiens, UniProt P24468); test: Luminescence-based cell-based high throughput dose response assay to identify inhibitors of COUP-TFII (NR2F2).; format: functional;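 also: HEK293 cells transiently cotransfected with COUP-TFII expression vector and reporter; luciferase reporter luminescence driven by COUP-TFII from the pX2-168 reporter plasmid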
Sequence of COUP transcription factor 2 (P24468 whole entry): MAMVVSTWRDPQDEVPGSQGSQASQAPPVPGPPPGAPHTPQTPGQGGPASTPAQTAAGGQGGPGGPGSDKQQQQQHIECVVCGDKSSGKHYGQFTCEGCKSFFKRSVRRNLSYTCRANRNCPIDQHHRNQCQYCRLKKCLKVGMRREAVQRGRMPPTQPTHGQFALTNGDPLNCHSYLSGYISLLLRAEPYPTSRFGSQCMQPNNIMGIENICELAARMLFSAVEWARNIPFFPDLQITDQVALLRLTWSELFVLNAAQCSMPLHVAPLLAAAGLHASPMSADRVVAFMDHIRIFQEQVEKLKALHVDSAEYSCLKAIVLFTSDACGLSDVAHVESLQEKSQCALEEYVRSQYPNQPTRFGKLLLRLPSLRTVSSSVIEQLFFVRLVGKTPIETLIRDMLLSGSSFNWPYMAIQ

[3] = non-specific 3'UTR reporter inhibition in Clone20-Shn3RL – cell-based, Renilla luciferase, cherry-picked, counter-screen for Shn3 inhibitor project, dose response (AID 624133); format: functional
[4] = cells; format: functional, cell-based; conditions: HEK-CNG
[5] = loss of viability in HepG2 cells – cell-based, CellTiter-Glo, cherry-picked, cytotoxicity control for Shn3 inhibitor project, dose response (AID 624134); format: functional
[6] = reduction of Shn3 3'UTR-driven luciferase in osteoblasts – cell-based, Clone20 osteoblasts, firefly luciferase, cherry-picked, dose response (AID 624132); format: functional;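 also: firefly luciferase luminescence from reporter carrying the Shn3 3'UTR in osteoblasts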
[7] = biological target: 1-phosphatidylinositol 4,5-bisphosphate phosphodiesterase beta-3 (Homo sapiens, UniProt Q01970); test: Fluorescence-based biochemical high throughput dose response assay to identify inhibitors of phospholipase C isozymes (PLC-B3).
Sequence of 1-phosphatidylinositol 4,5-bisphosphate phosphodiesterase beta-3 (Q01970 whole entry): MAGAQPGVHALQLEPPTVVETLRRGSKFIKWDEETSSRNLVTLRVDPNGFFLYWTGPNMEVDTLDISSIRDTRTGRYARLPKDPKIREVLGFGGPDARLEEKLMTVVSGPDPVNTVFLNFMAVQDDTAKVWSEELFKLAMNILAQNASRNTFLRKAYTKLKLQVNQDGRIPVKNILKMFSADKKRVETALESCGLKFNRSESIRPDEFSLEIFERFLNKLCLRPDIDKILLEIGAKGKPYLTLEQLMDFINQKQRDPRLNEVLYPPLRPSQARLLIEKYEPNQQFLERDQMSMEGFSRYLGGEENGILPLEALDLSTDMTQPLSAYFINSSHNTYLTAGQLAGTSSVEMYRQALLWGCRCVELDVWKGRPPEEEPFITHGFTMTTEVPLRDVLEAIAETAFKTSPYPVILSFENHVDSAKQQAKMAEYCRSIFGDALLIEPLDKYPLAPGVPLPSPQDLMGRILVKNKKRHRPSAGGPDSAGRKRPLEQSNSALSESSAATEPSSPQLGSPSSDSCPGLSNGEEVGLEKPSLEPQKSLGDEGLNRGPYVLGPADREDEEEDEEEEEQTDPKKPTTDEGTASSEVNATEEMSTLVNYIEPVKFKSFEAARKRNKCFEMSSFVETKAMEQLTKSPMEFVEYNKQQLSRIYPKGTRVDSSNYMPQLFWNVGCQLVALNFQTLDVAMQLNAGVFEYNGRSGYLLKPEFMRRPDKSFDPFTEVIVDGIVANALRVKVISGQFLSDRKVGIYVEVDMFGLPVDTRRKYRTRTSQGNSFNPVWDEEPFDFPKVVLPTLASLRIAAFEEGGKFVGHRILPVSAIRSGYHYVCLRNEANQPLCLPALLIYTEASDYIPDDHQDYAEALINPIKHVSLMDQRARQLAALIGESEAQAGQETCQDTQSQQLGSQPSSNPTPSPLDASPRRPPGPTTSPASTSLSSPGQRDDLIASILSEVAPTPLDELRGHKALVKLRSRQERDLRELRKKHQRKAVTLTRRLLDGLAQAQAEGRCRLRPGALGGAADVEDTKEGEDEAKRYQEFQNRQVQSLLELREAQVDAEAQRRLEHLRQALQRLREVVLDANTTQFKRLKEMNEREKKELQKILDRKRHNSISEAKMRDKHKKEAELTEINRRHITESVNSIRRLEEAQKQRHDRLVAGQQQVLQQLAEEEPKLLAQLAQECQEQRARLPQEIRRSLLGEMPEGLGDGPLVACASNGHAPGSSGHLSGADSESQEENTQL

[8] = biological target: 1-phosphatidylinositol 4,5-bisphosphate phosphodiesterase gamma-1 (Homo sapiens, UniProt P19174); test: Counterscreen for inhibitors of phospholipase C isozymes (PLC-B3): Fluorescence-based biochemical high throughput dose response assay to identify inhibitors of phospholipase C isozymes (PLC-gamma1).
Sequence of 1-phosphatidylinositol 4,5-bisphosphate phosphodiesterase gamma-1 (P19174 whole entry): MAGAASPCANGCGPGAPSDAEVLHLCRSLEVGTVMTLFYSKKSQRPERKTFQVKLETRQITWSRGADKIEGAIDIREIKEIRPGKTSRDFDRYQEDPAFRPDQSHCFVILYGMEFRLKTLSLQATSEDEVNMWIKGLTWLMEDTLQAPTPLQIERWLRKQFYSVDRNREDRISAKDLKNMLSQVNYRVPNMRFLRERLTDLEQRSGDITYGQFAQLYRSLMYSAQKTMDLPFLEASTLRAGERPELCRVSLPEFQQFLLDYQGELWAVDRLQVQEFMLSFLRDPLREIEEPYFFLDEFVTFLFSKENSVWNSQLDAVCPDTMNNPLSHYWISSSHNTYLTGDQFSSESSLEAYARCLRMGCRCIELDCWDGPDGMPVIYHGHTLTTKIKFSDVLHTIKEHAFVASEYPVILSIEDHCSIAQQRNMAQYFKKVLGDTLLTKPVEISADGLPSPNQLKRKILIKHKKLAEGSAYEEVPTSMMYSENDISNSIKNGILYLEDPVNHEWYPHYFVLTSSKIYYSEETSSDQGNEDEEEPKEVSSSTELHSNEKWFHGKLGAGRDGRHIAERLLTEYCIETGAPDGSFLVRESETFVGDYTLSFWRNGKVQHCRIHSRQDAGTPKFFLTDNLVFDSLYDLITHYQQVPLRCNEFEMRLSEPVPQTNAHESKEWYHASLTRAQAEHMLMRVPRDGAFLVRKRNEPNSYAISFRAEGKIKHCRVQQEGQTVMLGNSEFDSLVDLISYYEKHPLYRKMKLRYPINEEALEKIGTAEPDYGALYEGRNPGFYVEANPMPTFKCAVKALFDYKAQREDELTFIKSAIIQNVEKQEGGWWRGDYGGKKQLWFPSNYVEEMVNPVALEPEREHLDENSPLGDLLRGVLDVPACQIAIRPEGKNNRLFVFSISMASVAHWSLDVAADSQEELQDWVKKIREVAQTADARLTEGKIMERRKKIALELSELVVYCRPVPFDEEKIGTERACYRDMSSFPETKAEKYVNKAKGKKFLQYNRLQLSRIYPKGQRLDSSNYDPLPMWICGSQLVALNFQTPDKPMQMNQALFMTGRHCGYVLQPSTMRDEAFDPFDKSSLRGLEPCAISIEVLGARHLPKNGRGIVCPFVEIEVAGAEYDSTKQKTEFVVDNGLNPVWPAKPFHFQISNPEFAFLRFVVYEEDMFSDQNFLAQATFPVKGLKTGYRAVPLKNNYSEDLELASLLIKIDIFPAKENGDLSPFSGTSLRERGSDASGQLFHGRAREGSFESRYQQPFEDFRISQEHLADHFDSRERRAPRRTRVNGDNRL

[9] = viability loss in HepG2 hepatoma cells – cell-based, ATP luminescence, cherry-pick, activator set 2, cytotoxicity control, dose response (AID 1053143); format: functional
[10] = A549 cell cytotoxicity, dose response, cytotoxicity control, plate reader, cherry-pick, antagonist series (AID 743412); format: functional, cell-based
[11] = viability loss in HEK293 cells – cell-based, plate reader, cherry-picked samples, cytotoxicity control, dose response (AID 743446); format: functional
[12] = blockade of melanocortin 4 receptor signaling – cell-based, plate reader, cherry pick, counter-screen for LGR2 antagonist project, dose response (AID 743444); format: functional;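 also: transfected HEK 293 cells stimulated with alpha-MSH peptide; potency of inhibitors of the alpha-MSH evoked signal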
[13] = toxicity toward HepG2 liver cells – cell-based, plate reader, cherry-pick, antagonist series, cytotoxicity control, dose response (AID 743416); format: functional
[14] = blockers of bursicon-stimulated LGR2 cAMP reporter – cell-based, HEK293, CRE-luciferase reporter, cherry pick, set 2, dose response (AID 743343); format: functional;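 also: transfected cells were stimulated with diluted bursicon conditioned medium after compound addition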
[15] = tested on: H4; test: Luminescence Cell-Based Dose Response HTS to Identify Activators of 5'UTR Stem-Loop Driven Prion Protein mRNA Translation in H4 Neuroglioblastoma Cells. [Related pubchem assays: 1829 (Project Summary), 1814 (Primary HTS)]; format: functional; conditions: Homo sapiens
[16] = Luminescence Cell-Based Dose Response HTS to Identify Activators of Luciferase Translation or Activity in H4 […] Cells. [Related pubchem assays: 1829 (Project Summary), 1814 (Primary HTS)]; format: functional
[17] = biological target: T2, Caspase-3 (Homo sapiens, UniProt P42574); format: functional;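 also: Dose-response selectivity test against caspase-3 for candidate inhibitors of sentrin-specific proteases (SENPs)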
T2 sequence (P42574 whole entry): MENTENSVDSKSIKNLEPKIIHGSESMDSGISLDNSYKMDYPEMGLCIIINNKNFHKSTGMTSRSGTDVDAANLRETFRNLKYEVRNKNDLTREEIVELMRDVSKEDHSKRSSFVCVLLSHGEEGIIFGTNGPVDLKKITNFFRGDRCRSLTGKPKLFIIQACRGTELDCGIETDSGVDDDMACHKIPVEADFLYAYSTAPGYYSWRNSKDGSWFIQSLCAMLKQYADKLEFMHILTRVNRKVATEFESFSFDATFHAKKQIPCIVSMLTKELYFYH

[18] = Luminescence Cell-Based Dose Response to Identify Activators of Luciferase Translation or Activity in H4-C Neuroglioblastoma Cells. [Related pubchem assays: 1829 (Project Summary), 1814 (Primary HTS)]; format: functional
[19] = biological target: T3, Sentrin-specific protease 8 (Homo sapiens, UniProt Q96LD8); format: functional;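 also: luminescence read-out of SENP8 inhibition, dose-response confirmation following an ultra-high-throughput screen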
T3 sequence (Q96LD8 whole entry): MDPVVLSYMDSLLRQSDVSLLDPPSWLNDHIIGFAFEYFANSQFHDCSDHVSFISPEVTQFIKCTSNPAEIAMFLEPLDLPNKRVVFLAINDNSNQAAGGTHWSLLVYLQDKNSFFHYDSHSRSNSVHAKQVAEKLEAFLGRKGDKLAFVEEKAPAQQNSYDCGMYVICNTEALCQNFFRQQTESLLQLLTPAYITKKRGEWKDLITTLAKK

[20] = biological target: T4, Sentrin-specific protease 6 (Homo sapiens, UniProt Q9GZR1); format: functional;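 also: Luminescence-based dose-response confirmatory assay of SENP6 inhibition, following up an ultra-high-throughput screen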
T4 sequence (Q9GZR1 whole entry): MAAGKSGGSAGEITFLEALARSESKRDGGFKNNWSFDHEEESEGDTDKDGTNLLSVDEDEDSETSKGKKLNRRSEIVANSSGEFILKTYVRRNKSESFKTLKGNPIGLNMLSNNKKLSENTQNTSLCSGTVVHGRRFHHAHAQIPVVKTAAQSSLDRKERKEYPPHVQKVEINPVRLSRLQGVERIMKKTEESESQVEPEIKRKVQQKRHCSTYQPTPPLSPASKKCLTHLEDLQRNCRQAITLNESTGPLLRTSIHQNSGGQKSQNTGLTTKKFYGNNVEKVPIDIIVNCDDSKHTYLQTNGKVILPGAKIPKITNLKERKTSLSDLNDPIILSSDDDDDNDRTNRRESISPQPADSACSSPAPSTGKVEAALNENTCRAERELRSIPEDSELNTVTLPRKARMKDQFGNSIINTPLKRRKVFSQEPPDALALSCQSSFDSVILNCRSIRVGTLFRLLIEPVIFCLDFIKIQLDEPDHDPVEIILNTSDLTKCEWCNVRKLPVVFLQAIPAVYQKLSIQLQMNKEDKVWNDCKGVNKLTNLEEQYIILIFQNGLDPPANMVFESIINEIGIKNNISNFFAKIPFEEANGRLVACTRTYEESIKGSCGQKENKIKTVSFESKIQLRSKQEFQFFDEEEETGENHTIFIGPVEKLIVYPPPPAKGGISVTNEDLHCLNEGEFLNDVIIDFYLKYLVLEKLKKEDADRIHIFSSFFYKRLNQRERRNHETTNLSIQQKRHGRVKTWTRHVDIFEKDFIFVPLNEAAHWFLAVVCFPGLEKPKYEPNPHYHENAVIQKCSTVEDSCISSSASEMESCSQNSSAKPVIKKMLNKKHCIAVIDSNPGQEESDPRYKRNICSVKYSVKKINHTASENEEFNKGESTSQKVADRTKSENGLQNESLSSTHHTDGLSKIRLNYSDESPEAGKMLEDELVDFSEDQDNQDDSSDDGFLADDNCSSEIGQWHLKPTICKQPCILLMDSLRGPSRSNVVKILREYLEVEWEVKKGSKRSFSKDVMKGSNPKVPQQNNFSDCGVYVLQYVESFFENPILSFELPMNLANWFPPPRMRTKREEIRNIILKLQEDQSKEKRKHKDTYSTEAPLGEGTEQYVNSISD

[21] = Luminescence Cell-Based Dose Response to Identify Activators of 5'UTR Stem-Loop Driven Prion Protein mRNA Translation in H4-C Neuroglioblastoma Cells. [Related pubchem assays: 1829 (Project Summary), 1814 (Primary HTS)]; format: functional
[22] = Luminescence Cell-Based Dose Confirmation to Identify Activators of 5'UTR Stem-Loop Driven Alpha-Synuclein mRNA Translation in H4 Neuroglioblastoma Cells. [Related pubchem assays: 1829 (Project Summary), 1814 (Primary HTS)]; format: functional
[23] = biological target: T5, Oxysterols receptor LXR-beta (Homo sapiens, UniProt P55055); format: functional, cell-based;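 also: agonist activity at LXR measured by a cell-based luminescence readout across a dose range, run as a counterscreen for daf-12 agonists; HEK293 cells with Gal4-LXR fusion and GAL4-driven luciferase reporter; potency for activation of Gal4-LXR reporter so compounds are agonists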
T5 sequence (P55055 whole entry): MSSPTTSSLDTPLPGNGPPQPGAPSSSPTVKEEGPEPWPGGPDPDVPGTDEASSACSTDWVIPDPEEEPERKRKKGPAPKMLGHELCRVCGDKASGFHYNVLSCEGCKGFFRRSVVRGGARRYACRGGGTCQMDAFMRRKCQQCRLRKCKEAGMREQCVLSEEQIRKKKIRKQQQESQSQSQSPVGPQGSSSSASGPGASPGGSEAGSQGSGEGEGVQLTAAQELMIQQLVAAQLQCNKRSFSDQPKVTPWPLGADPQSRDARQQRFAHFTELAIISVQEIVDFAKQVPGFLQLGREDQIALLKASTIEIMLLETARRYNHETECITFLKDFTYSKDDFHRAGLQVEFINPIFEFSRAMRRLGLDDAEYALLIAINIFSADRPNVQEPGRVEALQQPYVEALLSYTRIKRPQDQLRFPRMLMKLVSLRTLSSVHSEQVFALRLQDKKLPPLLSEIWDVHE

[24] = biological target: T6, Sentrin-specific protease 7 (Homo sapiens, UniProt Q9BQF6); format: functional;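 also: Luminescence-based dose-response confirmation of ultra-high-throughput screening hits, measuring inhibition of SENP7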
T6 sequence (Q9BQF6 whole entry): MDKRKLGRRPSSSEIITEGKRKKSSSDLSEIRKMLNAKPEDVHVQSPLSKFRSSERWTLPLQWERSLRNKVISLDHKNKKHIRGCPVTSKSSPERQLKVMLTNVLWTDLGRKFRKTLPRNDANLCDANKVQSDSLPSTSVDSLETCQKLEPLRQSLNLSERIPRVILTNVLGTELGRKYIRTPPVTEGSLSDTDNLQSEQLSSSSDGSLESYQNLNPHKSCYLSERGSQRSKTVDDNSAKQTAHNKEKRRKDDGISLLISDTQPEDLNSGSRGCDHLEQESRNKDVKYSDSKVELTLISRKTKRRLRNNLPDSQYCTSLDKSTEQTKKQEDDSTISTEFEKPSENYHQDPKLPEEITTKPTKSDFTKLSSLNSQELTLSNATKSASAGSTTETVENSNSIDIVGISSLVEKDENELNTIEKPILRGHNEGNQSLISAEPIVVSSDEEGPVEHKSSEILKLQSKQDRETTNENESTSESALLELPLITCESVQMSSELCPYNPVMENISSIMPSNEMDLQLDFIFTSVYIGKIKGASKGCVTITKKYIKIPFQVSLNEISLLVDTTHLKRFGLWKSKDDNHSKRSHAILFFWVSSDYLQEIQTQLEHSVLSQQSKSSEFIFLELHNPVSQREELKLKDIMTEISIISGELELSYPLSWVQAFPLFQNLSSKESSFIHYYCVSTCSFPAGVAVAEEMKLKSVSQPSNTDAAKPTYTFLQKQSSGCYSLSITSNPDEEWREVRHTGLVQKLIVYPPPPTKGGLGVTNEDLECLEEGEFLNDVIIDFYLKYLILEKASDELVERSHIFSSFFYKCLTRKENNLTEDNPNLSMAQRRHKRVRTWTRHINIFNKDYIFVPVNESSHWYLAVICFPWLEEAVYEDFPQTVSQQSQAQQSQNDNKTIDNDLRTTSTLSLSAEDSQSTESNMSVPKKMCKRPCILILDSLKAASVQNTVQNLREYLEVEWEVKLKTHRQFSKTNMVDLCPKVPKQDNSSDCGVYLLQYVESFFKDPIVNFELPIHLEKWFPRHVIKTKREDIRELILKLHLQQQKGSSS

Fc1ccc(N=C(S)N2CCCN(c3ccc(C(F)(F)F)cn3)CC2)c(F)c1
active: IC50 [1] 0.142 µM | IC50 [2] 3.07 µM | AC50 [3] 27 µM | AC50 [5] 1.09 µM | AC50 [6] 3.71 µM
inactive: EC50 [4] > 29.9 µM

COCCNCCCOc1ccc(Br)cc1Cl
inactive: IC50 [7] > 123 µM | IC50 [8] > 123 µM

c1csc(-c2nc(CN3CCSCC3)cs2)c1
inactive: AC50 [10] > 52 µM | AC50 [11] > 52 µM | AC50 [13] > 52 µM
active: AC50 [9] 26 µM | AC50 [12] 14.8 µM | AC50 [14] 18.8 µM

Cc1ccc(S(=O)(=O)NC(=NC(S)=Nc2ccccc2)c2ccccc2)cc1
active: EC50 [15] < 0.1 µM | IC50 [17] 20.4 µM | EC50 [18] 2.54 µM | IC50 [19] 22.5 µM | IC50 [20] 14.1 µM | EC50 [21] 0.308 µM | EC50 [22] 0.786 µM | IC50 [24] 4.8 µM
inactive: EC50 [23] > 67.5 µM
inconclusive: EC50 [16] < 0.1 µM
